Results published in publication PMC8347092, “Betulin, a Newly Characterized Compound in Acacia auriculiformis Bark, Is a Multi-Target Protein Kinase Inhibitor” (Molecules, 2021).

Assays:
[1] = molecular target: CDK5/p25 (Homo sapiens, UniProt Q00535); test: ADP-Glo protein kinase assay, CDK5/p25; assay type: biochemical; settings: 10 µM ATP, normalized to DMSO control, mean n = 2
Protocol: (§1) Kinase enzymatic activities were assayed in 384-well plates using the ADP-Glo^TM assay kit, following the recommendations of the manufacturer (Promega, Madison, WI). Controls were performed in appropriate dilutions of dimethyl sulfoxide (DMSO). Kinase activities, measured in the presence of 10 µM ATP, are expressed as percentage of maximal activity, i.e., measured in the absence of inhibitor. In order to determine the half-maximal inhibitory concentration (IC50), the assays were performed in duplicate in the absence or presence of increasing doses of the tested compounds. Data were analyzed using GraphPad PRISM (GraphPad Software, San Diego, CA, USA) software to fit a sigmoïdal curve that allowed determination of the IC50 values. The experimental conditions used for measuring kinase activities are comprehensively described in Ibrahim et al.. Human recombinant ABL1 mutant (T315I) was purchased from Promega (Catalog # V5320) and tested following the recommendations of the manufacturer (Promega, Madison, WI, USA).

[2] = molecular target: T1, Haspin (Homo sapiens, UniProt Q8TF76); test: ADP-Glo protein kinase assay, Haspin; assay type: biochemical; settings: 10 µM ATP, normalized to DMSO control, mean n = 2
T1 sequence (Q8TF76 1-798): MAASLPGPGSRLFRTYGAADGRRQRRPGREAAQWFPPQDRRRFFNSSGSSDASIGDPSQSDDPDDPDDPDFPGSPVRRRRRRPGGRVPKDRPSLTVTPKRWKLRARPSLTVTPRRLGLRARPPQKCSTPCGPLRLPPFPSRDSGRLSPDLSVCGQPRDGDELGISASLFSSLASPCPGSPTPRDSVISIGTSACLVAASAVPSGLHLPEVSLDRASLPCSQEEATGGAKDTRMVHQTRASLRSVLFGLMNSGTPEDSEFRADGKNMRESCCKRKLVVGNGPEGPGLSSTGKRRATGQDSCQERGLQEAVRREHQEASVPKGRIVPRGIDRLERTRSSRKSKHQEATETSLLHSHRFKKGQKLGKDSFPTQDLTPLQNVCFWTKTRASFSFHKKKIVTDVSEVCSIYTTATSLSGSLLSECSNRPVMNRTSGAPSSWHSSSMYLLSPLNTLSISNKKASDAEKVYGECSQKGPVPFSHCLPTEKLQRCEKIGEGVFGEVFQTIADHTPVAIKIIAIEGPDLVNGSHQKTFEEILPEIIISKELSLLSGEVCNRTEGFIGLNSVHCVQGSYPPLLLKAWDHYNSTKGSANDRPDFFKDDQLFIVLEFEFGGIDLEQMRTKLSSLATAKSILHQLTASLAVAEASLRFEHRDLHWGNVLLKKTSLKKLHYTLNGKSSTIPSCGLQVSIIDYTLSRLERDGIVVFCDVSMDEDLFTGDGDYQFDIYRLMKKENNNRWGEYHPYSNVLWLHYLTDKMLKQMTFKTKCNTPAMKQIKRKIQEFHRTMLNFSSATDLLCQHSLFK
Protocol: as §1

[3] = tested on: K562S (doxorubicin-sensitive K562) chronic myelogenous leukemia cells; test: MTS cell viability assay, K562S cells; assay type: cell-based, human
Protocol: K562 (ATCC®, CCL-243, described here as K562S to indicate sensitivity to doxorubicin), a human chronic myelogenous leukemia cell line, was obtained from American Type Culture Collection (Manassas, VA, USA). A doxorubicin-resistant cell line (K562R, also known as K562/Adr) was kindly provided by the IRSET institute (Research Institute for Environmental and Occupational Health, INSERM, University of Rennes 1, France). The cells were maintained at 37 °C and 5% CO2 in Gibco™ 1640 Roswell Park Memorial Institute (RPMI-1640) medium containing 10% fetal bovine serum (FBS) (Life Technologies^TM, Thermo Fisher Scientific, Waltham, MA, USA).
(§2) Cell viability was evaluated with the MTS (3-(4,5-dimethylthiazol-2-yl)-5-(3-carboxymethoxyphenyl)-2-(4-sulfophenyl)-2H-tetrazolium) reduction kit, (CellTiter 96 Aqueous Non-Radioactive Cell Proliferation Assay, Promega, Fitchburg, WI, USA), according to the instructions of the manufacturer. […] Further details on experimental conditions used can be found in Delehouzé et al. 2017 [47].

[4] = tested on: K562R (doxorubicin-resistant K562) chronic myelogenous leukemia cells; test: MTS cell viability assay, K562R cells; assay type: cell-based; settings: Homo sapiens, K-562R, 48 h exposure, n = 3
[5] = tested on: human peripheral blood lymphocytes (hPBLs); test: MTS cell viability assay, human peripheral blood lymphocytes; assay type: cell-based; settings: betulin ≤ 100 µM, 48 h, four healthy donors
Protocol: Peripheral blood mononuclear cells (PBMCs) were isolated by Ficoll gradient centrifugation from blood buffy coats of healthy donors, provided by the Etablissement Français du Sang (EFS). The research protocol was conducted under French legal guidelines. After separation of monocytes by 1 h adhesion step, non-adherent PBMCs (peripheral blood lymphocytes, PBL) were harvested. PBL were cultured in RPMI 1640 medium (Gibco, Life technologies, Carlsbad, CA, USA) supplemented with 10% decomplemented fetal bovine serum (CVFSVF00–01, Eurobio), penicillin (100 IU/mL), and streptomycin (100 μg/mL) (15140–122, Gibco). All cells were cultured at 37 °C with 5% CO2.
as §2

[6] = tested on: phospho-ERK1/2 (Thr202/Tyr204); test: Immunoblot of phospho-ERK1/2 in K562S cells; assay type: cell-based, human; settings: 6 h treatment, ImageJ band quantification
Protocol: The concentration of DMSO in the culture medium was 1%. Cell lysates were prepared by sonication of the cells in homogenization buffer with 0.5% of nonidet P-40 non-ionic detergent (NP-40) as described previously. SDS-PAGE and immunoblotting were performed following standard procedures. Anti-α-tubulin antibody (clone B512, T5168, 1:5000) was purchased from Sigma Aldrich (St. Louis, MO, USA). The anti-phospho-p44/42 MAPK (#28733–1-AP, 1:2000) was purchased from Proteintech® (Rosemont, IL, USA). This rabbit polyclonal antibody detects p44 and p42 MAPK when doubly phosphorylated (at Thr202 and Tyr204 of p44 and at Thr185 and Tyr187 of p42 MAPK).

[7] = molecular target: ABL1 mutant (T315I) (Homo sapiens, UniProt P00519, T315I); settings: inhibitor at 1 µM; 10 µM ATP; compared with wild type ABL1
Protocol: Effect of the T315I ABL1 kinase domain mutation on the inhibition by betulin. We selected 1 µM
We measured inhibition of mutant and WT ABL1 kinase activities by betulin and by
imatinib, using the ADP-Glo luminescent assay. ATP concentration used in the kinase assays was 10 µM.
Data are mean (N=3, n=3) ± SEM expressed as % of residual kinase activity, normalized to the DMSO control.

[8] = ref ChemSpider database, Royal Society of Chemistry; cited from earlier work
[9] = betulin purified from Acacia auriculiformis at 1 µg/mL
[10] = betulin purified from Acacia auriculiformis at 10 µg/mL

CDK5/p25, sequence (Q00535 whole entry): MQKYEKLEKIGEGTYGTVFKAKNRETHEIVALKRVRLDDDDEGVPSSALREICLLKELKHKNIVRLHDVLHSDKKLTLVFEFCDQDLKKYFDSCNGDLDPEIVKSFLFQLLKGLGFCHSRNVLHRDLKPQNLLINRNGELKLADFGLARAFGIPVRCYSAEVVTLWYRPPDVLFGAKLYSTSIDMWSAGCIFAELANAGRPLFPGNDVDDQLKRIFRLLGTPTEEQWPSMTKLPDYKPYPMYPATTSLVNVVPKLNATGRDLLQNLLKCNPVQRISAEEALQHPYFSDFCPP
CDK5/p25, sequence (Q15078 99-307 partner limits assumed): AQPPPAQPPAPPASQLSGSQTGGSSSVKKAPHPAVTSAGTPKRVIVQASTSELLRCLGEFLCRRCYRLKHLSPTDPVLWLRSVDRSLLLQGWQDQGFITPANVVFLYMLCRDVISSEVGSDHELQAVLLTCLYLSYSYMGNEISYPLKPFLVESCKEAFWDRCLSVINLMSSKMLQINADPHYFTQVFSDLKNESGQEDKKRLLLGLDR

C=C(C)[C@@H]1CC[C@]2(CO)CC[C@]3(C)[C@H](CC[C@@H]4[C@@]5(C)CC[C@H](O)C(C)(C)[C@@H]5CC[C@]43C)[C@@H]12 [Betulin, 3-lup-20(29)-ene-3β,28-diol]
% of kinase activity that remained, CDK5/p25 [1, 9]: 94%
% of kinase activity that remained, CDK5/p25 [1, 10]: 99%
% of kinase activity that remained, Haspin [2, 9]: 72%
% of kinase activity that remained, Haspin [2, 10]: 91%
IC50 ([3]; Homo sapiens, K562, 48 h exposure, n = 3): 16.5 µM
effects on K562S cell viability when cells co-treated with z-VAD-fmk ([3]; betulin 1-50 µM with 20 µM z-VAD-fmk (pan-inhibitor of caspases), 48 h): not significantly altered
IC50 [4]: 13.5 µM
viability of hPBLs [5]: did not induce a significant decrease
%pERK/Tubulin ([6]; 50 µM): 71.3%
%pERK/Tubulin ([6]; 100 µM): 48.3%
inhibition of the enzymatic activity of T315I mutant of ABL1 [7]: retains its capacity to inhibit
predicted Octanol-Water Partition Coefficient (LogP) [8]: 9.01
